Data on twelve compounds can be found in patent publication US20250114374A1, “BCL-2 INHIBITORS” (Newave Pharmaceutical Inc., priority 2021, published 2025).

The assay deals with RS4; 11 with G101V mutation. Briefly: In vitro anti-proliferation assay (ATPlite luminescence) in BCL-2-dependent ALL cell line RS4;11 with G101V mutation. The assay is classed as cell-based. The conditions noted are these: read-out: RS411-G101V IC50. The method in brief: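 IC50 came from luminescent ATP quantification (ATPlite) following cell lysis. Compound dose ranges were applied for roughly 72 h to about 1×10^4 G101V-mutant RS4;11 cells per well, in 10% FBS medium.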
A general note: In ATP-based viability assays light output follows the ATP content of the culture.

[1] abbreviates: cellular anti-proliferative IC50, about 72 hours, medium with 10% FBS, ATPlite.

Like-named read-outs stand apart in the source and are kept apart here.

By IC50 is commonly meant the concentration needed to halve the response being measured. For `CC(C)Oc1ccccc1[C@@H]1CN(C2CCC(C)(O)CC2)CCN1C1CC2(CCN(c3ccc(C(=O)NS(=O)(=O)c4cc5c(c([N+](=O)[O-])c4)N[C@H](C4CCOCC4)CO5)c(N4c5cc6cc[nH]c6nc5O[C@H]5COCC[C@@H]54)c3)CC2)C1` (stereo partly drawn) [Example 207, 4-(2-((R)-4-((1r,4R)-4-hydroxy-4-methylcyclohexyl)-2-(2-isopropoxyphenyl)piperazin-1-yl)-7-azaspiro[3.5]nonan-7-yl)-N-(((R)-5-nitro-3-(tetrahydro-2H-pyran-4-yl)-3,4-dihydro-2H-benzo[b][1,4]oxazin-7-yl)sulfonyl)-2-((5aS,9aR)-6,7,9,9a-tetrahydro-1H-pyrano[3,4-b]pyrrolo[3′,2′:5,6]pyrido[3,2-e][1,4]oxazin-5(5aH)-yl)benzamide], the IC50 under setting [1] came out at 26.9 nM. In the case of `CC(C)Oc1ccccc1[C@@H]1CN([C@H]2CCOc3c(F)cc(F)cc32)CCN1C1CC2(CCN(c3ccc(C(=O)NS(=O)(=O)c4cc5c(c([N+](=O)[O-])c4)N[C@H](C4CCOCC4)CO5)c(N4c5cc6cc[nH]c6nc5O[C@H]5COCC[C@@H]54)c3)CC2)C1` [Example 214, 4-(2-((R)-4-((S)-6,8-difluorochroman-4-yl)-2-(2-isopropoxyphenyl)piperazin-1-yl)-7-azaspiro[3.5]nonan-7-yl)-N-(((R)-5-nitro-3-(tetrahydro-2H-pyran-4-yl)-3,4-dihydro-2H-benzo[b][1,4]oxazin-7-yl)sulfonyl)-2-((5aS,9aR)-6,7,9,9a-tetrahydro-1H-pyrano[3,4-b]pyrrolo[3′,2′:5,6]pyrido[3,2-e][1,4]oxazin-5(5aH)-yl)benzamide], for the setting “Homo sapiens, RS4-11, 72 h”, the IC50 amounted to 385 nM. `COc1cc(CN2CCN(C3CC4(CCN(c5ccc(C(=O)NS(=O)(=O)c6ccc(NCC7CCOCC7)c([N+](=O)[O-])c6)c(N6c7cc8cc[nH]c8nc7O[C@H]7COCC[C@@H]76)c5)CC4)C3)[C@@H](c3ccccc3OC(C)C)C2)cnc1N1CCOCC1` [Example 132, 2-[(3R,8S)-2,5-dioxa-9,15,17-triazatetracyclo[8.7.0.0^{3,8}.0^{12,16}]heptadeca-1(10),11,13,16-tetraen-9-yl]-4-{2-[(2S)-2-(2-isopropoxyphenyl)-4-{[5-methoxy-6-(morpholin-4-yl)pyridin-3-yl]methyl}piperazin-1-yl]-7-azaspiro[3.5]nonan-7-yl}-N-{3-nitro-4-[(oxan-4-ylmethyl)amino]benzenesulfonyl}benzamide]: under setting [1], the IC50 was found to be 32.2 nM. Still for that read-out and setting: in the case of `CC(C)Oc1ccccc1[C@@H]1CN(Cc2ccc(C(F)(F)F)nc2)CCN1C1CC2(CCN(c3ccc(C(=O)NS(=O)(=O)c4cc5c(c([N+](=O)[O-])c4)N[C@H](C4CCOCC4)CO5)c(N4c5cc6cc[nH]c6nc5O[C@H]5COCC[C@@H]54)c3)CC2)C1` [Example 261, 2-[(3R,8S)-2,5-dioxa-9,15,17-triazatetracyclo[8.7.0.0^{3,8}.0^{12,16}]heptadeca-1(10),11,13,16-tetraen-9-yl]-4-{2-[(2R)-2-(2-isopropoxyphenyl)-4-{[6-(trifluoromethyl)pyridin-3-yl]methyl}piperazin-1-yl]-7-azaspiro[3.5]nonan-7-yl}-N-[(3R)-5-nitro-3-(oxan-4-yl)-3,4-dihydro-2H-1,4-benzoxazin-7-ylsulfonyl]benzamide] it was 3.87 nM.

As to `CC(C)Oc1ccccc1[C@@H]1CN([C@@H]2CCOc3nc(N4CCOC[C@@H]4C)c(F)cc32)CCN1C1CC2(CCN(c3ccc(C(=O)NS(=O)(=O)c4cc5c(c([N+](=O)[O-])c4)N[C@H](C4CCOCC4)CO5)c(N4c5cc6cc[nH]c6nc5O[C@H]5COCC[C@@H]54)c3)CC2)C1` [Example 219, 4-(2-((R)-4-((R)-6-fluoro-7-((S)-3-methylmorpholino)-3,4-dihydro-2H-pyrano[2,3-b]pyridin-4-yl)-2-(2-isopropoxyphenyl)piperazin-1-yl)-7-azaspiro[3.5]nonan-7-yl)-N-(((R)-5-nitro-3-(tetrahydro-2H-pyran-4-yl)-3,4-dihydro-2H-benzo[b][1,4]oxazin-7-yl)sulfonyl)-2-((5aS,9aR)-6,7,9,9a-tetrahydro-1H-pyrano[3,4-b]pyrrolo[3′,2′:5,6]pyrido[3,2-e][1,4]oxazin-5(5aH)-yl)benzamide], the IC50 (Homo sapiens, RS4-11, 72 h) was determined as 56.3 nM. Regarding `COc1cc(CN2CCN([C@H]3CC4(CCN(c5ccc(C(=O)NS(=O)(=O)c6ccc(NCC7CCC(C)(O)CC7)c([N+](=O)[O-])c6)c(N6c7cc8cc[nH]c8nc7O[C@H]7COCC[C@@H]76)c5)CC4)[C@@H]3C)[C@H](c3ccccc3C)C2)cnc1N1CCOCC1` (stereo partly drawn) [Example 141, 2-[(3R,8S)-2,5-dioxa-9,15,17-triazatetracyclo[8.7.0.0^{3,8}.0^{12,16}]heptadeca-1(10),11,13,16-tetraen-9-yl]-4-[(1S,2S)-2-[(2R)-4-{[5-methoxy-6-(morpholin-4-yl)pyridin-3-yl]methyl}-2-(2-methylphenyl)piperazin-1-yl]-1-methyl-7-azaspiro[3.5]nonan-7-yl]-N-[3-nitro-4-({[(1r,4r)-4-hydroxy-4-methylcyclohexyl]methyl}amino)benzenesulfonyl]benzamide], the IC50 under setting [1] amounted to 35.9 nM. As to `COc1cc(CN2CCN(C3CC4(CCN(c5ccc(C(=O)NS(=O)(=O)c6ccc(NCC7CCC(C)(O)CC7)c([N+](=O)[O-])c6)c(N6c7cc8cc[nH]c8nc7O[C@H]7COCC[C@@H]76)c5)CC4)C3)[C@@H](c3ccccc3OC(C)C)C2)cnc1N1CCOC[C@H]1C` (stereo partly drawn) [Example 111, 2-[(3R,8S)-2,5-dioxa-9,15,17-triazatetracyclo[8.7.0.0^{3,8}.0^{12,16}]heptadeca-1(10),11,13,16-tetraen-9-yl]-4-{2-[(2S)-2-(2-isopropoxyphenyl)-4-({5-methoxy-6-[(3R)-3-methylmorpholin-4-yl]pyridin-3-yl}methyl)piperazin-1-yl]-7-azaspiro[3.5]nonan-7-yl}-N-[3-nitro-4-({[(1r,4r)-4-hydroxy-4-methylcyclohexyl]methyl}amino)benzenesulfonyl]benzamide], under setting [1], the 50% inhibitory concentration (IC50) amounted to 10.7 nM. Still for that read-out and setting: in the case of `CC(C)Oc1ccccc1[C@@H]1CN([C@H]2CCOc3cc(F)c(F)cc32)CCN1C1CC2(CCN(c3ccc(C(=O)NS(=O)(=O)c4cc5c(c([N+](=O)[O-])c4)N[C@H](C4CCOCC4)CO5)c(N4c5cc6cc[nH]c6nc5O[C@H]5COCC[C@@H]54)c3)CC2)C1` [Example 210, 4-{2-[(2R)-4-[(4S)-6,7-difluoro-3,4-dihydro-2H-1-benzopyran-4-yl]-2-(2-isopropoxyphenyl)piperazin-1-yl]-7-azaspiro[3.5]nonan-7-yl}-2-[(3R,8S)-2,5-dioxa-9,15,17-triazatetracyclo[8.7.0.0^{3,8}.0^{12,16}]heptadeca-1(10),11,13,16-tetraen-9-yl]-N-[(3R)-5-nitro-3-(oxan-4-yl)-3,4-dihydro-2H-1,4-benzoxazin-7-ylsulfonyl]benzamide] it was 37.8 nM.

Regarding `COc1cc(CN2CCN(C3CC4(CCN(c5ccc(C(=O)NS(=O)(=O)c6ccc(NCC7CCC(C)(O)CC7)c([N+](=O)[O-])c6)c(N6c7cc8cc[nH]c8nc7O[C@H]7COCC[C@@H]76)c5)CC4)C3)[C@@H](c3ccccc3C)C2)cnc1OC` (stereo partly drawn) [Example 149, 4-(2-((S)-4-((5,6-dimethoxypyridin-3-yl)methyl)-2-(o-tolyl)piperazin-1-yl)-7-azaspiro[3.5]nonan-7-yl)-N-((4-((((1r,4r)-4-hydroxy-4-methylcyclohexyl)methyl)amino)-3-nitrophenyl)sulfonyl)-2-((5aS,9aR)-6,7,9,9a-tetrahydro-1H-pyrano[3,4-b]pyrrolo[3′,2′:5,6]pyrido[3,2-e][1,4]oxazin-5(5aH)-yl)benzamide], the IC50 under setting [1] was 28.3 nM. Same read-out and setting: the same measure for `Cc1ccccc1[C@@H]1CN([C@@H]2CCOc3c2ccc(F)c3F)CCN1C1CC2(CCN(c3ccc(C(=O)NS(=O)(=O)c4cc5c(c([N+](=O)[O-])c4)N[C@H](C4CCOCC4)CO5)c(N4c5cc6cc[nH]c6nc5O[C@H]5COCC[C@@H]54)c3)CC2)C1` [Example 195, 4-{2-[(2R)-4-[(4R)-7,8-difluoro-3,4-dihydro-2H-1-benzopyran-4-yl]-2-(2-methylphenyl)piperazin-1-yl]-7-azaspiro[3.5]nonan-7-yl}-2-[(3R,8S)-2,5-dioxa-9,15,17-triazatetracyclo[8.7.0.0^{3,8}.0^{12,16}]heptadeca-1(10),11,13,16-tetraen-9-yl]-N-[(3R)-5-nitro-3-(oxan-4-yl)-3,4-dihydro-2H-1,4-benzoxazin-7-ylsulfonyl]benzamide]: 94.5 nM; for `CC(C)Oc1ccccc1[C@H]1CN(C2CCC(C)(O)CC2)CCN1C1CC2(CCN(c3ccc(C(=O)NS(=O)(=O)c4ccc(NCC5CCC(C)(O)CC5)c([N+](=O)[O-])c4)c(N4c5cc6cc[nH]c6nc5O[C@H]5COCC[C@@H]54)c3)CC2)C1` (stereo partly drawn) [Example 108, 2-[(3R,8S)-2,5-dioxa-9,15,17-triazatetracyclo[8.7.0.0^{3,8}.0^{12,16}]heptadeca-1(10),11,13,16-tetraen-9-yl]-4-{2-[(2S)-2-(2-isopropoxyphenyl)-4-[(1r,4r)-4-hydroxy-4-methylcyclohexyl]piperazin-1-yl]-7-azaspiro[3.5]nonan-7-yl}-N-[3-nitro-4-({[(1r,4r)-4-hydroxy-4-methylcyclohexyl]methyl}amino)benzenesulfonyl]benzamide]: 7.2 nM. Same read-out and setting: in the case of `Cc1ccccc1[C@@H]1CN(Cc2ccnc3c2OCC(C)(C)O3)CCN1C1CC2(CCN(c3ccc(C(=O)NS(=O)(=O)c4ccc(NCC5CCC(C)(O)CC5)c([N+](=O)[O-])c4)c(N4c5cc6cc[nH]c6nc5O[C@H]5COCC[C@@H]54)c3)CC2)C1` (stereo partly drawn) [Example 148, 4-(2-((R)-4-((3,3-dimethyl-2,3-dihydro-[1,4]dioxino[2,3-b]pyridin-8-yl)methyl)-2-(o-tolyl)piperazin-1-yl)-7-azaspiro[3.5]nonan-7-yl)-N-((4-((((1r,4r)-4-hydroxy-4-methylcyclohexyl)methyl)amino)-3-nitrophenyl)sulfonyl)-2-((5aS,9aR)-6,7,9,9a-tetrahydro-1H-pyrano[3,4-b]pyrrolo[3′,2′:5,6]pyrido[3,2-e][1,4]oxazin-5(5aH)-yl)benzamide] it was 6.3 nM.
